{
  "source": "patent US10543212B2",
  "about": "“Substituted amines for treating cardiac diseases” (Cardurion Pharmaceuticals, LLC, priority 2017, dated 2020)",
  "data": [
    {"target": "T1, Full-length, GST-tagged, human CaMKIIδ (Homo sapiens, UniProt Q13557)", "T1 construct": "Full-Length, Glutathione-S-Transferase(GST)-Tagged, Human CaMKIIδ was purchased from Carna Biosciences; purchased Carna Biosciences 02-111", "T1 sequence (Q13557 1-478 isoform Q13557-12)": "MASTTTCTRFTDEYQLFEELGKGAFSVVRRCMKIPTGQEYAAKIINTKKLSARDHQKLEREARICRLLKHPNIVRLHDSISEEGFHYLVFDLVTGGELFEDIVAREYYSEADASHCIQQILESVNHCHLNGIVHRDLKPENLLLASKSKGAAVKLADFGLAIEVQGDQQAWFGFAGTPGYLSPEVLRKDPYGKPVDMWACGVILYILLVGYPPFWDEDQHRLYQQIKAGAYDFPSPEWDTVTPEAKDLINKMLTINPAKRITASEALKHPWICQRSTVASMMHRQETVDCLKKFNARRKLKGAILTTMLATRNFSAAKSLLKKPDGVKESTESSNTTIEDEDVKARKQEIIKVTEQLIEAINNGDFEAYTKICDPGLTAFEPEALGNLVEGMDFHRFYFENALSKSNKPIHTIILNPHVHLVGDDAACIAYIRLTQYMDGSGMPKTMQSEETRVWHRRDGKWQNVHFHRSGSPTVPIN", "experiment": "CaMKIIδ binding assay (TR-FRET with BODIPY-labeled probe ligand)", "settings": "CaMKIIδ binding assay, results of Table 2", "how_it_was_run": "(§1)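 Compounds were tested as 4-fold, eight-point series for 1 hr at room temperature, and IC50 was obtained by logistic fitting against a 3 μM parent-compound control. Signal came from displacement of a 300 nM BODIPY ligand from 0.5 nM GST-CaMKIIδ, detected via Tb-anti-GST in calmodulin/Ca2+ (pH 7.6).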", "units": {"IC50": "nM"}, "values": [
      {"smiles": "COc1cc(C2=CCN(C3COC3)CC2)c(C)cc1Nc1ncc(-c2ccc(Cl)c(O[C@@H](C)Cn3cnnn3)c2)cn1", "note": "[Example 531, (S)-5-(3-((1-(1H-tetrazol-1-yl)propan-2-yl)oxy)-4-chlorophenyl)-N-(2-methoxy-5-methyl-4-(1-(oxetan-3-yl)-1,2,3,6-tetrahydropyridin-4-yl)phenyl)pyrimidin-2-amine]", "IC50": "10 to 100"},
      {"smiles": "COc1ccc(C(=O)N2CCCN(C3COC3)CC2)cc1Nc1ncc(-c2ccc(Cl)c(O[C@@H](C)Cn3cnnn3)c2)cn1", "note": "[Example 573, (S)-(3-((5-(3-((1-(1H-tetrazol-1-yl)propan-2-yl)oxy)-4-chlorophenyl)pyrimidin-2-yl)amino)-4-methoxyphenyl) (4-(oxetan-3-yl)-1,4-diazepan-1-yl)methanone]", "IC50": "< 10"},
      {"smiles": "Cc1cnc(N2CCC(N3CCOCC3)CC2)cc1Nc1ncc(-c2ccc(C#N)c(O[C@@H](C)Cn3cnnn3)c2)cn1", "note": "[Example 509, (S)-2-((1-(1H-tetrazol-1-yl)propan-2-yl)oxy)-4-(2-((5-methyl-2-(4-morpholinopiperidin-1-yl)pyridin-4-yl)amino)pyrimidin-5-yl)benzonitrile]", "IC50": "10 to 100"},
      {"smiles": "C[C@@H](Cn1cnnn1)Oc1cc(-c2cnc(Nc3cn(C4CCN(CC#N)CC4)nc3C(F)(F)F)nc2)ccc1Cl", "note": "[Example 536, (S)-2-(4-(4-((5-(3-((1-(1H-tetrazol-1-yl)propan-2-yl)oxy)-4-chlorophenyl)pyrimidin-2-yl)amino)-3-(trifluoromethyl)-1H-pyrazol-1-yl)piperidin-1-yl)acetonitrile]", "IC50": "10 to 100"},
      {"smiles": "C[C@@H](Cn1cnnn1)Oc1cc(-c2cnc(Nc3ccc4c(c3)CCN4C(=O)OC(C)(C)C)nc2)ccc1Cl", "note": "[Example 450, tert-butyl (S)-5-((5-(3-((1-(1H-tetrazol-1-yl)propan-2-yl)oxy)-4-chlorophenyl)pyrimidin-2-yl)amino)indoline-1-carboxylate]", "IC50": "≥ 100"},
      {"smiles": "C[C@@H](Cn1cnnn1)Oc1cc(-c2cnc(Nc3cn(CC4CCN(C(=O)OC(C)(C)C)C4)nc3C(F)(F)F)nc2)ccc1Cl", "note": "(stereo partly drawn) [Example 571, tert-butyl 3-((4-((5-(3-(((S)-1-(1H-tetrazol-1-yl)propan-2-yl)oxy)-4-chlorophenyl)pyrimidin-2-yl)amino)-3-(trifluoromethyl)-1H-pyrazol-1-yl)methyl) pyrrolidine-1-carboxylate]", "IC50": "≥ 100"}
    ]},
    {"target": "T1, Full-length, GST-tagged, human CaMKIIδ", "experiment": "CaMKIIδ binding assay (TR-FRET with BODIPY-labeled probe ligand)", "settings": "Table 2; CaMKIIδ binding assay, activity given as class A/B/C", "how_it_was_run": "as §1", "units": {"IC50": "nM"}, "values": [
      {"smiles": "C[C@@H](Cn1cnnn1)Oc1cc(-c2cnc(Nc3cn([C@@H]4C[C@H]5CC[C@@H](C4)N5C)nc3C(F)(F)F)nc2)ccc1Cl", "note": "[Example 758, 5-(3-(((S)-1-(1H-tetrazol-1-yl)propan-2-yl)oxy)-4-chlorophenyl)-N-(1-((1R,3s,5S)-8-methyl-8-azabicyclo[3.2.1]octan-3-yl)-3-(trifluoromethyl)-1H-pyrazol-4-yl)pyrimidin-2-amine]", "IC50": "< 10"},
      {"smiles": "C[C@@H](Cn1cnnn1)Oc1cc(-c2cnc(Nc3cn([C@H]4CC[C@H](N5CC6(COC6)C5)CC4)nc3C(F)(F)F)nc2)ccc1Cl", "note": "[Example 822, 5-(3-(((S)-1-(1H-tetrazol-1-yl)propan-2-yl)oxy)-4-chlorophenyl)-N-(1-(trans-4-(2-oxa-6-azaspiro[3.3]heptan-6-yl)cyclohexyl)-3-(trifluoromethyl)-1H-pyrazol-4-yl)pyrimidin-2-amine]", "IC50": "< 10"},
      {"smiles": "C[C@@H](Cn1cnnn1)Oc1cc(-c2cnc(Nc3cn(C4CCCCO4)nc3OCC(F)(F)F)nc2)ccc1C#N", "note": "(stereo partly drawn) [Example 763, 2-(((S)-1-(1H-tetrazol-1-yl)propan-2-yl)oxy)-4-(2-((1-(tetrahydro-2H-pyran-2-yl)-3-(2,2,2-trifluoroethoxy)-1H-pyrazol-4-yl)amino)pyrimidin-5-yl)benzonitrile]", "IC50": "< 10"},
      {"smiles": "C[C@@H](Cn1cnnn1)Oc1cc(-c2cnc(Nc3cn(C4CCN(C5CCOCC5)CC4)nc3C(F)F)nc2)ccc1Cl", "note": "[Example 769, (S)-5-(3-((1-(1H-tetrazol-1-yl)propan-2-yl)oxy)-4-chlorophenyl)-N-(3-(difluoromethyl)-1-(1-(tetrahydro-2H-pyran-4-yl)piperidin-4-yl)-1H-pyrazol-4-yl)pyrimidin-2-amine]", "IC50": "< 10"},
      {"smiles": "C[C@@H](Cn1cnnn1)Oc1cc(-c2cnc(Nc3cn([C@H]4CC[C@H](N5CCOCC5)CC4)nc3C(F)(F)F)nc2)ccc1F", "note": "[Example 808, 5-(3-(((S)-1-(1H-tetrazol-1-yl)propan-2-yl)oxy)-4-fluorophenyl)-N-(1-(trans-4-morpholinocyclohexyl)-3-(trifluoromethyl)-1H-pyrazol-4-yl)pyrimidin-2-amine]", "IC50": "< 10"}
    ]},
    {"target": "T1, Full-length, GST-tagged, human CaMKIIδ", "experiment": "CaMKIIδ binding assay (TR-FRET with BODIPY-labeled probe ligand)", "settings": "Table 2; activity class for CaMKIIδ", "how_it_was_run": "as §1", "units": {"IC50": "nM"}, "values": [
      {"smiles": "C[C@@H](Cn1cnnn1)Oc1cc(-c2cnc(Nc3cn(Cc4ccncc4)nc3C(F)(F)F)nc2)ccc1Cl", "note": "[Example 709, (S)-5-(3-((1-(1H-tetrazol-1-yl)propan-2-yl)oxy)-4-chlorophenyl)-N-(1-(pyridin-4-ylmethyl)-3-(trifluoromethyl)-1H-pyrazol-4-yl)pyrimidin-2-amine]", "IC50": "10 to 100"},
      {"smiles": "C[C@@H](Cn1cnnn1)Oc1cc(-c2cnc(Nc3cn(C4CCCN(C5COC5)C4)nc3C(F)(F)F)nc2)ccc1Cl", "note": "(stereo partly drawn) [Example 601, 5-(3-(((S)-1-(1H-tetrazol-1-yl)propan-2-yl)oxy)-4-chlorophenyl)-N-(1-(1-(oxetan-3-yl)piperidin-3-yl)-3-(trifluoromethyl)-1H-pyrazol-4-yl)pyrimidin-2-amine]", "IC50": "10 to 100"},
      {"smiles": "C[C@@H](Cn1cnnn1)Oc1cc(-c2cnc(Nc3cn([C@@H]4C[C@H]5CC[C@@H](C4)N5)nc3C(F)(F)F)nc2)ccc1Cl", "note": "[Example 702, 5-(3-(((S)-1-(1H-tetrazol-1-yl)propan-2-yl)oxy)-4-chlorophenyl)-N-(1-((1R,3s,5S)-8-azabicyclo[3.2.1]octan-3-yl)-3-(trifluoromethyl)-1H-pyrazol-4-yl)pyrimidin-2-amine]", "IC50": "< 10"},
      {"smiles": "CCc1nn(C2CCN(C3CCOCC3)CC2)cc1Nc1ncc(-c2ccc(Cl)c(O[C@@H](C)Cn3cnnn3)c2)cn1", "note": "[Example 632, (S)-5-(3-((1-(1H-tetrazol-1-yl)propan-2-yl)oxy)-4-chlorophenyl)-N-(3-ethyl-1-(1-(tetrahydro-2H-pyran-4-yl)piperidin-4-yl)-1H-pyrazol-4-yl)pyrimidin-2-amine]", "IC50": "< 10"},
      {"smiles": "CCn1cc(Nc2ncc(-c3ccc(Cl)c(O[C@@H](C)Cn4cnnn4)c3)cn2)c(N2CCOCC2)n1", "note": "[Example 624, (S)-5-(3-((1-(1H-tetrazol-1-yl)propan-2-yl)oxy)-4-chlorophenyl)-N-(1-ethyl-3-morpholino-1H-pyrazol-4-yl)pyrimidin-2-amine]", "IC50": "≥ 100"},
      {"smiles": "C[C@@H](Cn1cnnn1)Oc1cc(-c2cnc(Nc3cc(C(F)(F)F)nn3C)nc2)ccc1Cl", "note": "[Example 720, (S)-5-(3-((1-(1H-tetrazol-1-yl)propan-2-yl)oxy)-4-chlorophenyl)-N-(1-methyl-3-(trifluoromethyl)-1H-pyrazol-5-yl)pyrimidin-2-amine]", "IC50": "10 to 100"},
      {"smiles": "COc1nc(N2CCN(C3CCOCC3)CC2)ccc1Nc1ncc(-c2ccc(Cl)c(O[C@@H](C)Cn3cnnn3)c2)cn1", "note": "[Example 616, (S)-5-(3-((1-(1H-tetrazol-1-yl)propan-2-yl)oxy)-4-chlorophenyl)-N-(2-methoxy-6-(4-(tetrahydro-2H-pyran-4-yl)piperazin-1-yl)pyridin-3-yl)pyrimidin-2-amine]", "IC50": "< 10"}
    ]}
  ]
}
